Source: EP1380292A1, “Tiaprid for the treatment of depressions” (Mewicon med. wiss. Beratung GmbH, priority 2002, dated 2004)

What was measured:
D2/D3 Dopaminrezeptoren = conditions: from the literature (Scatton et al., Eur Psychiatry 2001); cited from earlier work
[1] = system: frontalem Kortex, Hippokampus, Striatum und Formatio Reticularis abgeleiteten Feldpotentiale; assay: Tele-Stereo-EEG: changes of EEG frequencies in freely moving rats after i.p. administration; type: in vivo, Fischer-344 Ratten; conditions: for Veränderungen der EEG-Frequenzen: i.p., 40 bis 100 mg/kg, rat, significant at least at P < 5 %-Level
Experimental: Testverfahren 1 ((Tele-Stereo-EEG)
Die Veränderungen der EEG-Frequenzen nach Gabe von Salzlösung (Kontrolle) bzw. einer Dosis von Tiaprid (40 bis 100 mg/kg Körpergewicht) wurden bestimmt.
Der Stecker diente der Aufnahme eines 4-Kanal-Senders zur telemetrischen Übertragung der aus frontalem Kortex, Hippokampus, Striatum und Formatio Reticularis abgeleiteten Feldpotentiale. Die Signale wurden auf einem Computer System (Software "EEG-Analyse", Betriebsystem OS Science, Laborrechner "LabTeam" der Firma MediSyst, Linden DE) in Echtzeit einer Fast-Fourier-Transformation unterworfen und die Leistungsdichtespektren jeweils über 15 bis 60 Minuten gemittelt. Die Unterteilung der Spektren in 6 verschiedene Frequenzbereiche erlaubte die Erfassung pharmakospezifischer Veränderungen in Bezug auf die jeweils vor der Applikation gemessenen Vorwerte innerhalb dieser Frequenzbänder.
Zum Applikationsprotokoll der Substanzen: Die Substanzen wurden i.p. 45 Minuten nach Beginn der Messungen (Vorwert) injiziert. Fünf Minuten später wurden die Messungen wieder gestartet, mindestens über die nächsten 5 Stunden kontinuierlich analysiert und in 15-minütigen Perioden zusammengefasst. Die Testsubstanz wurde in einer Dosierung von 40 bis 100 mg/kg appliziert. Die experimentelle Serie wurde mit der Injektion von Salzlösung (Kontrolle) begonnen.
Die beobachteten Frequenzänderungen wurden mittels einer Diskriminanzanalyse mit den Ergebnissen mit herkömmlichen antidepressiv wirkenden Arzneimitteln sowie Arzneimitteln für andere Indikationen verglichen. Es wurden folgende Arzneimittel verwendet: 100 mg/kg Tiaprid (Tiapr), 2 mg/kg Paroxetin (Parox), 10 mg/kg Imipramin (Imip), 10 mg/kg Amitryptilin (Amit), 1 mg/kg Nomifensin (Nomi), 0.5 mg/kg Midazolam (Midaz), 60 mg/kg Phenobarbital (Pheno), 60 mg/kg Meprobamat (Meprob), 0.5 mg/kg Chlorpromazin (Chlorp), 0,25 mg/kg Haloperidol (Halop), 1 mg/kg Prothipendyl (Prothi), 10 mg/kg Thioridazin (Thior), 15 mg/kg Carbamazepin (Carba), 75 mg/kg Valproinsäure (Valpr), 6 mg/kg Phenytoin (Pheny). Des weiteren wurden geprüft: 1,3 Vol.-% Halothan (Haloth), 100 mg/kg Propofol (Propo), 1,0 Vol.-% Isofluran (Isofl), 4,5 Vol.-% Desfluran (Desfl), 1,8 Vol.-% Sevofluran (Sevofl) und 1,7 Vol.-% Enfluran (Enfl). Die Ergebnisse sind in Fig. 2 dargestellt.

[2] = system: Pyramidenzellen im Hippokampus-Schnittpräparat der Ratte; assay: Long-term potentiation in the hippocampus slice preparation in vitro; set-up: species or system CD-Ratten
Experimental: Testmethode 2 (Langzeitpotenzierung im Hippokampus-Schnittpräparat in vitro)
Die Wirkung von Tiaprid auf die Langzeitpotenzierung der Pyramidenzellen im Hippokampus-Schnittpräparat der Ratte wurde bestimmt.
Für die Durchführung dieser Studie wurden 15 erwachsene männliche CD-Ratten verwendet. Die Isolation des Hippokampus erfolgte an äthernarkotisierten und anschließend exsanguinierten Tieren. In Phosphat-gepufferter Salzlösung (NaCl: 124 mM; KCl: 5 mM; CaCl2: 2 mM; MgSO4: 2 mM; NaH2PO4: 1,25 mM; NaHCO3: 26 mM; Glucose: 10 mM; Kontroll-Lösung: künstliche Zerebral-Spinal-Flüssigkeit (ASCF, artificial cerebral spinal fluid); alle von der Firma Roth, Karlsruhe DE) wurde der mittlere Teil des Hippokampus mit Hilfe eines Schnellklebers aufgeblockt und mit einem Vibratom (Rhema Labortechnik) in 400 µm dicke Scheiben geschnitten. Die Aufbewahrung dieses Hippokampusschnittes erfolgte für mindestens 1 Stunde vor Versuchsbeginn (siehe S.J. Schiff, G.G. Somjen "The Effects of Temperature on Synaptic Transmission in Hippocampal Tissue Slices" Brain Research (1985), 345, 279-284) in einer mit Carbogen durchperlten Inkubationskammer.
Das Experiment selbst wurde in einer sog. "Base Unit mit Haas Top" (Firma Medical Systems Corp.) bei 35°C durchgeführt. Der mit Hilfe peristaltischer Pumpen (Infusomat, B. Braun Melsungen AG) superfundierte Hippokampusschnitt lag auf einem Stück Gaze. […]

## CCN(CC)CCNC(=O)c1cc(S(C)(=O)=O)ccc1OC [Tiaprid, N-2-(Diethylaminoethyl)-5-methylsulfonyl-2-methoxybenzamide]
D2/D3 Dopaminrezeptoren
  Rezeptor-Bindungsprofil: selektive Blockade von D2/D3 Dopaminrezeptoren
[1]; discriminant analysis against antidepressants and drugs for other indications, 100 mg/kg Tiaprid
  Muster der EEG-Frequenzänderungen ("Fingerprint", Diskriminanzanalyse): korrelieren in signifikanter Weise mit den Mustern, die für andere antidepressive Arzneimittel kennzeichnend sind
[1]; first hour after administration
  Veränderungen der EEG-Frequenzen: Abfall bei allen Frequenzen
[1]; i.p. single dose, compared with saline (0,9 % NaCl-Lösung), all brain areas, all frequencies
  Veränderungen der elektrischen Gehirnaktivität: statistisch signifikantes Niveau im Vergleich zu Salzlösung
[1]; next (second) hour after administration
  Veränderungen der EEG-Frequenzen: im Hippokampus und Striatum Theta- und Alpha2-Wellen nicht mehr so stark vermindert
[2]; Tiaprid added to superfusion fluid, 2 concentrations, rat hippocampus slice, 35°C, N = 6 slices
  Amplitude der Populationsspikes: konzentrationsabhängig zu einer deutlichen Abnahme der Amplitude der Populationsspikes
[2]; rat hippocampus slice in vitro, tetanic stimulus
  Langzeitpotenzierung: Unterdrückung der "Langzeitpotenzierung"
